The test system of series [1] is PA-I promoter activity in reporter strain PA27853/PLL-EGFP.
Series [2] has as its system PA-I protein expression in PAO1. In kind it is cell-based, Pseudomonas aeruginosa.
Series [3] deals with PA-I expression in P. aeruginosa. In kind it is cell-based, Pseudomonas aeruginosa.
The test system of a further series is PA27853. Description: Biofilm formation assay, PA27853. It is filed as cell-based, Pseudomonas aeruginosa.
For another series, the system named is MDCK cells. It is filed as cell-based.
A further series relates to P. aeruginosa PA27853. The series is described as follows: Mice with slow release morphine pellets drinking PA27853-spiked formula. In kind it is in vivo. To be noted: daily oral 1×10^8 cfu/ml PA27853.
Series [4] has as its system PA-I expression in Pseudomonas strain PA27853. The series is described as follows: Quantitative RT-PCR of PA-I mRNA in PA27853 exposed to morphine. It is filed as cell-based, Pseudomonas aeruginosa.
For series [5] the following is noted: in vivo, iv; cited from earlier work.
Series [6] deals with membrane protein fractions of P. aeruginosa. The series is described as follows: Morphine binding to P. aeruginosa membrane protein fractions. Also noted: species or system Pseudomonas aeruginosa.

Turning to `C=CCN1C[C@H](C)N([C@H](c2ccc(C(=O)N(CC)CC)cc2)c2cccc(O)c2)C[C@H]1C` [BW373U86], the “PA-I expression as judged by fluorescence of the GFP reporter strain” value in series [1] is on record as “greatest effect on PA-I expression”. The PA-I protein entry in [2] is reported as “same degree as C4-HSL”. In addition, the “response to express PA-I” value in [3] is listed as “robust response”. The biofilm production entry in the series with PA27853 is reported as “especially increased”. Moreover, in the series on MDCK cells, the “TEER of MDCK cells following apical exposure to PA27853 plus opioid” value is recorded as “more profound decrease in the TEER”.

In the case of `CN1CC[C@]23c4c5ccc(O)c4O[C@H]2[C@@H](O)C=C[C@H]3[C@H]1C5` [morphine], in the series on P. aeruginosa PA27853, the “mice that developed severe sepsis” value is 4/4 and the mortality result is reported as “significant mortality”. For the same molecule, the “response to express PA-I” value in series [3] was “robust response”. For the same molecule, the PA-I expression result in series [4] (PA27853, physiologic concentrations of morphine (13 μM)) is given as “four-fold increase”. Moreover, the “increase in PA-I mRNA” value in series [4] (PA27853 exposed to morphine (13 μM), quantitative RT-PCR) was determined as 4 fold. Also, the “concentration at tissue sites such as the intestinal mucosa” value in [5] was not above 100 µM. The “binding to membrane protein fractions” value in [6] is “binds to membrane protein fractions”.

The record behind these values is US20070059272A1 (priority 2005, published 2007).
